Tested on: C3H spleen T cells
Assay: One-way mixed leukocyte reaction (MLR), allostimulatory capacity by [3H]TdR uptake
Type: cell-based, mouse
Settings: zVAD-fmk 100 μM added at the beginning of 3-day MLR
Procedure: Mixed leukocyte reaction (MLR). To determine the allostimulatory capacity of DCs, one-way MLR were performed with γ-irradiated (20 Gy) DCs or spleen cells from B10 (allogeneic) or C3H (syngeneic) mice as stimulators and nylon wool-purified C3H spleen T cells (2×105) as responders. Cultures (200 μl) were established in triplicate in 96-well round-bottom microculture plates and maintained in complete medium in 5% CO2 in air at 37° C. for 3-4 days. [^3H]TdR (1 μCi/well) was added for the final 18 h of culture, and incorporation of [^3H]TdR into DNA was assessed by liquid scintillation counting in an automated counter. Results are expressed as mean cpm±1 SD. In apoptosis inhibition experiments, a common caspase inhibitor peptide, benzyloxycarbonyl-Val Ala-Asp-fluoromethyl ketone (zVAD-fmk; Alexis, San Diego, Calif.), was added (100 μM) at the beginning of the MLR culture. DMSO served as a control.
Allostimulatory capacity of liver-derived DEC205^+B220^+CD19^−cells. The allostimulatory capacity of DEC205^+, B220^+, CD19^−cells derived from B 10 liver NPCs was determined in a one-way MLR, performed as described above. […] Despite the high expression of MHC and costimulatory molecules, liver-derived DEC205^+B220^+CD19^−cells display low allostimulatory capacity.

## benzyloxycarbonyl-Val Ala-Asp-fluoromethyl ketone [zVAD-fmk]
  T cell proliferation induced by liver-derived DEC205+B220+CD19− cells after caspase inhibition: restored T cell proliferation

Reference: patent publication US20040043483A1, “Novel tolerogenic dendritic cells and therapeutic uses therefor” (priority 2002, published 2004)
